Results as given in patent US6916844B2, “Hydroxy pyranone derivative and preparation method thereof” (Amorepacific Corporation, priority 2002, dated 2005).

Legend:
rabbits = assay: Primary skin irritation test on animals (Draize P.I.I.); format: in vivo; details: 1% in 1,3-butylene glycol:ethanol=7:3, 0.5 ml, observed 24 and 72 hours later
Protocol: This test was performed for six (6) healthy male rabbits whose hairs on both sides of the backs were cut. The compounds of Examples 1˜6 were dissolved in 1,3-butylene glycol:ethanol=7:3, to obtain 1% concentration of test samples. 0.5 ml of each test samples were applied to right side area of 2.5 cm×2.5 cm. No sample was treated on left side as a control. 24 hours and 72 hours later, skin abnormality such as erythema, crust and edema was observed. Based on the score of skin response, skin irritation was estimated according to Draize's P.I.I. (Primary Irritation Index) and compared with that of retinoic acid.

Human fibroblasts [1] = assay: Collagenase-inhibiting effect (collagenase expression, ELISA kit); format: cell-based; details: 10^-4 M, 24 hours, relative to untreated control group = 100
Protocol: The collagenase-inhibiting effect of hydroxy pyranone derivatives obtained in Examples 1˜6 was compared with those of retinol and retinoic acid.
Human fibroblasts were cultured in Dulbecco's Modified Eagle's Medium (DMEM) supplemented with 2.5% fetal bovine serum. The fibroblasts were seeded into a 96-well microtiter plate to a density of 5,000 cells/well, and then cultured to 70˜80% of growth. The plate was treated with test samples at a concentration of 10^−4M for 24 hours, then the cultured medium and the cells were raked up and recovered. From the recovered culture, collagenase production was measured with collagenase kit (Catalog #: RPN 2610) commercialized by Amersham Pharmacia Biotech. First, the recovered culture was added into a 96-well plate wherein primary collagenase antibodies were uniformly spread, and then antigen-antibody reaction was performed in an incubator for 3 hours. Later, secondary collagenase antibodies bonded with chromophore were added to the 96-well plate and reacted for 15 minutes. Then, color former was added thereto in order to induce development at the room temperature for 15 minutes, and 1M of sulfuric acid was added to stop the reaction. The reaction solution became yellow, and the color density depends on the progress of the reaction. The absorbance of the yellow 96-well plate was measured at 405 nm with absorptiometer. The expression of collagenase was calculated by the following equation 1. No sample was treated in the control group.
[Equation 1] The expression of collagenase (%)=[(Absorbance of test group)/(Absorbance of control group)]×100
The expression of collagenase was evaluated as a relative value compared with that of the control group of which the expression of collagenase was set to be 100.

Human fibroblasts [2] = assay: Effect on biosynthesis of collagen (procollagen type (I) ELISA); format: cell-based; details: 10^-4 M, 24 hours, relative to untreated control group = 100
Protocol: The effect of the hydroxy pyranone derivatives obtained in Examples 1˜6 on biosynthesis of collagen was compared with those of retinol and retinoic acid.
Human fibroblasts were seeded into a 24-well plate to a density of 10^5 cells/well and then cultured to 90% of growth. The plate was washed with PBS (phosphate buffered saline) and treated with test samples at a concentration of 10^−4M, and then incubated in a CO2 incubator for 24 hours. From its supernatant, procollagen production was measured with procollagen type (I) ELISA kit. The biosynthesis of collagen was evaluated as a relative value compared with that of the control group, which is not treated with sample and of which the value of biosyntheis of collagen was set to be 100.

white guinea pigs = assay: Phototoxicity test; format: in vivo; details: 1% (w/v) solution, UVA 15 J/cm^2, observed at 24, 48 and 72 hours; for Phototoxic index: below 0.5 = no phototoxicity
Protocol: This test was performed for ten (10) white guinea pigs whose hairs on both sides of the backs were cut, and fixed. On the back of the guinea pig, six (6) test sites measuring 2.5 cm×2.5 cm, three (3) per each side, were sectioned. Right sites were prepared as controls with no irradiation (UV non-irradiation sites) and left sites were irradiated (UV irradiation sites). Vehicle (1,3-butylene glycol:ethanol=7:3) was used as a negative control, and 0.1% concentration of 8-MOP (methoxypsoralene) was used as a positive control; and 1% (w/v) solutions of the compounds of Examples 1˜6 were applied to either site with an amount of […] for each site. 30 minutes later, right sites were shielded with aluminum foil and UVA(320˜380 nm) was irradiated at a distance of about 10 cm therefrom with Waldmann to the final energy of 15 J/cm^2. After 24, 48 and 72 hours elapsed, skin response of guinea pig was observed. Erythema and edema were scored from 0 to 4 points as shown in the Table 3, and skin response was evaluated by summing the scores. Maximum scores were selected when measured on each elapsed time, i.e. 24, 48 and 72 hours, and irritation index was calculated according to the following equation 2. Then, phototoxic index was calculated according to the following equation 3.
[Equation 2] Irritation index=(Maximum of erythema+Maximum of edema)/Number of animals [Equation 3] Phototoxic index=(Irritation index of UV irradiation site)−(Irritation index of UV non-irradiation site)

[3] = test system: healthy females and males; assay: Human patch test; format: in vivo; details: 1% in patch base; for Average Response (n = 30): calculated by equation 4, below 1 = no irritation; for Number of the subjected showing response, 24 hours later, − (No visible response) / Number of the subjected showing response, 24 hours later, ± (Mild erythema) / Number of the subjected showing response, 24 hours later, + (Intense erythema) / Number of the subjected showing response, 24 hours later, + + (Intense erythema with edema) / Number of the subjected showing response, 24 hours later, + + + (Intense erythema with edema and vesicle): n = 30, 24 hours later; for Number of the subjected showing response, 24 hours later, − (No visible response) / Number of the subjected showing response, 48 hours later, − (No visible response): grade 0; for Number of the subjected showing response, 24 hours later, ± (Mild erythema) / Number of the subjected showing response, 48 hours later, ± (Mild erythema): grade 1; for Number of the subjected showing response, 24 hours later, + (Intense erythema) / Number of the subjected showing response, 48 hours later, + (Intense erythema): grade 2; for Number of the subjected showing response, 24 hours later, + + (Intense erythema with edema) / Number of the subjected showing response, 48 hours later, + + (Intense erythema with edema): grade 3; for Number of the subjected showing response, 24 hours later, + + + (Intense erythema with edema and vesicle) / Number of the subjected showing response, 48 hours later, + + + (Intense erythema with edema and vesicle): grade 4; for Number of the subjected showing response, 48 hours later, − (No visible response) / Number of the subjected showing response, 48 hours later, ± (Mild erythema) / Number of the subjected showing response, 48 hours later, + (Intense erythema) / Number of the subjected showing response, 48 hours later, + + (Intense erythema with edema) / Number of the subjected showing response, 48 hours later, + + + (Intense erythema with edema and vesicle): n = 30, 48 hours later
Protocol: This test was performed for thirty (30) healthy females and males aged on average 24.8 years and having no experience of hypersensitivity, according to method of CTFA Guideline (The Cosmetic, Toiletry and Fragrance Association. Inc. Washington, D.C., 20023, 1991). Each compound of Examples 1˜6 was dissolved in patch base having the composition of Table 6 to be 1% concentration as for test materials, and 20 μl of each test materials was dropped into a Finn chamber respectively, then attached to the forearm of the subject and fixed with a micropore tape. After 24 hours of patching, the patches were removed and the test sites were marked with marking pen. The observations of the test sites were made after 24 and 48 hours from the patching.
The average response of Table 8 was calculated by the following equation 4. [formula]

Molecule | Evaluation (skin irritation) (rabbits) | P. I. I. (Primary Irritation Index) (rabbits) | Expression of collagenase (%) (Human fibroblasts [1]) | Biosynthesis of collagen (%) (Human fibroblasts [2]) | Evaluation (phototoxicity) (white guinea pigs) | Phototoxic index (white guinea pigs) | Average Response (n = 30) [3] | Number of the subjected showing response, 24 hours later, − (No visible response) [3] | Number of the subjected showing response, 24 hours later, ± (Mild erythema) [3] | Number of the subjected showing response, 24 hours later, + (Intense erythema) [3] | Number of the subjected showing response, 24 hours later, + + (Intense erythema with edema) [3] | Number of the subjected showing response, 24 hours later, + + + (Intense erythema with edema and vesicle) [3] | Number of the subjected showing response, 48 hours later, − (No visible response) [3] | Number of the subjected showing response, 48 hours later, ± (Mild erythema) [3] | Number of the subjected showing response, 48 hours later, + (Intense erythema) [3] | Number of the subjected showing response, 48 hours later, + + (Intense erythema with edema) [3] | Number of the subjected showing response, 48 hours later, + + + (Intense erythema with edema and vesicle) [3]
((3E)-4-(2H,3H-benzo [3,4-d] 1,3-dioxolan-5-yl)-2-oxobut-3-enyloxy)-5-hydroxy-4H-pyran-4-one [Compound of Ex. 3] | No irritation | 0.375 | 78% | 123% | No phototoxicity | 0 | 0.00 | 30 | 0 | 0 | 0 | 0 | 30 | 0 | 0 | 0 | 0
CC1=C(/C=C/C(C)=C/C=C/C(C)=C/CO)C(C)(C)CCC1 [Retinol, reference compound] | – | – | 82% | 120% | – | – | – | – | – | – | – | – | – | – | – | – | –
O=c1cc(/C=C/c2ccc3c(c2)OCO3)occ1O [Compound of Ex. 5, 2-((1E)-2-(2H,3H-benzo [3,4-d] 1,3-dioxolan-5-yl)vinyl)-5-hydroxy-4H-pyran-4-one] | No irritation | 0.375 | 88% | 116% | No phototoxicity | 0 | 0.00 | 30 | 0 | 0 | 0 | 0 | 30 | 0 | 0 | 0 | 0
O=C(/C=C/c1ccc2c(c1)OCCO2)COc1cc(=O)c(O)co1 [Compound of Ex. 4, 2-((3E)-4-(2H,3H-benzo [3,4-e] 1,4-dioxan-6-yl)-2-oxobut-3-enyloxy)-5hydroxy-4-pyran-4-one] | No irritation | 0.350 | 77% | 122% | No phototoxicity | 0 | 0.42 | 29 | 1 | 0 | 0 | 0 | 30 | 0 | 0 | 0 | 0
O=c1cc(/C=C/c2ccc3c(c2)OCCO3)occ1O [Compound of Ex. 6, 2-((1E)-2-(2H,3H-benzo [3,4-e] 1,4-dioxan-6-yl)vinyl)-5-hydroxy-4H-pyran-4-one] | No irritation | 0.315 | 84% | 115% | No phototoxicity | 0 | 0.00 | 30 | 0 | 0 | 0 | 0 | 30 | 0 | 0 | 0 | 0
CC1=C(/C=C/C(C)=C/C=C/C(C)=C/C(=O)O)C(C)(C)CCC1 [Retinoic acid, reference compound] | Light irritation | 1.830 | 75% | 125% | – | – | – | – | – | – | – | – | – | – | – | – | –
O=C(Oc1cc(=O)c(O)co1)c1ccc2c(c1)OCCO2 [Compound of Ex. 2, (5-hydroxy-4-oxo-4H-pyran-2-yl) 2H,3H-benzo [3,4-e] 1,4-dioxane-6-carboxylate] | No irritation | 0.345 | 81% | 121% | No phototoxicity | 0 | 0.42 | 30 | 0 | 0 | 0 | 0 | 29 | 1 | 0 | 0 | 0
